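Each compound was tested at five concentrations against cells in 96-well plates for 48 hours. GI50 = concentration required for 50% inhibition of growth.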 Activity calls are given as the source filed them. Rule as the data show it: active = GI50 up to about 1.1 µM and inactive = higher.
Experiments:
Test in all cases: DTP human tumour cell line panel, 48 h
[1] = system: SR
[2] = system: NCI-H23
[3] = system: HOP-92
[4] = system: U-251
[5] = system: MOLT-4
[6] = system: CAKI-1
[7] = system: OVCAR-5
[8] = system: ACHN
[9] = system: SF-539
[10] = system: NCI-H522
[11] = system: SF-268
[12] = system: MDA-N
[13] = system: TK-10
[14] = system: SF-295
[15] = system: UACC-257
[16] = system: COLO 205
[17] = system: LOX IMVI
[18] = system: Malme-3M
[19] = system: NCI-H226
[20] = system: MDA-MB-435

SMILES | GI50 [1] | GI50 [2] | GI50 [3] | GI50 [4] | GI50 [5] | GI50 [6] | GI50 [7] | GI50 [8] | GI50 [9] | GI50 [10] | GI50 [11] | GI50 [12] | GI50 [13] | GI50 [14] | GI50 [15] | GI50 [16] | GI50 [17] | GI50 [18] | GI50 [19] | GI50 [20]
CN1N=C(N)c2cn(C3OC(COP(=O)(O)O)C(O)C3O)c3ncnc1c23 (stereo not given) | 10.8 µM (inactive) | 25.9 µM (inactive) | 0.5 µM (active) | 379 µM (inactive) | 0.622 µM (active) | 1.18 µM (inactive) | 9.84 µM (inactive) | 3.16 µM (inactive) | 32.4 µM (inactive) | 2050 µM (inactive) | 55.6 µM (inactive) | 38.4 µM (inactive) | 2.88 µM (inactive) | 144 µM (inactive) | 152 µM (inactive) | 106 µM (inactive) | 1.03 µM (active) | 136 µM (inactive) | 7.41 µM (inactive) | 34.3 µM (inactive)
C/C(=C/CC[C@]1(CO)CC[C@]2(CO)[C@H](CC[C@@H]3[C@@]4(C)CC[C@H](OC5OCC(O)C(O)C5OC5OC(CO)C(O)C(O)C5O)C(C)(C)[C@@H]4CC[C@]32C)[C@H]1O)CO (stereo not given in full) | > 100 µM (inactive) | > 100 µM (inactive) | > 100 µM (inactive) | > 100 µM (inactive) | > 100 µM (inactive) | > 100 µM (inactive) | > 100 µM (inactive) | > 100 µM (inactive) | > 100 µM (inactive) | > 100 µM (inactive) | > 100 µM (inactive) | > 100 µM (inactive) | > 100 µM (inactive) | > 100 µM (inactive) | > 100 µM (inactive) | > 100 µM (inactive) | > 100 µM (inactive) | 92.3 µM (inactive) | > 100 µM (inactive) | > 100 µM (inactive)
O=c1c2cc(Br)ccc2oc2nc3n(c(=O)c12)CCCS3 | > 100 µM (inactive) | > 100 µM (inactive) | > 100 µM (inactive) | > 100 µM (inactive) | > 100 µM (inactive) | > 100 µM (inactive) | > 100 µM (inactive) | > 100 µM (inactive) | > 100 µM (inactive) | > 100 µM (inactive) | > 100 µM (inactive) | > 100 µM (inactive) | > 100 µM (inactive) | > 100 µM (inactive) | > 100 µM (inactive) | > 100 µM (inactive) | > 100 µM (inactive) | > 100 µM (inactive) | > 100 µM (inactive) | > 100 µM (inactive)
N=C(N)NS(=O)(=O)c1ccc(NC(=O)c2ccc3nc4ccccc4c(Nc4ccc(S(N)(=O)=O)cc4)c3c2)cc1 | > 100 µM (inactive) | > 100 µM (inactive) | > 100 µM (inactive) | > 100 µM (inactive) | > 100 µM (inactive) | > 100 µM (inactive) | > 100 µM (inactive) | > 100 µM (inactive) | > 100 µM (inactive) | > 100 µM (inactive) | > 100 µM (inactive) | > 100 µM (inactive) | > 100 µM (inactive) | > 100 µM (inactive) | > 100 µM (inactive) | > 100 µM (inactive) | > 100 µM (inactive) | > 100 µM (inactive) | > 100 µM (inactive) | > 100 µM (inactive)
c1ccc2c(c1)N=c1cc3c(cc1N2)=NC12CCCCC1CC1=C(CCCC1)N32 (stereo not given) | 0.425 µM (active) | 4.56 µM (inactive) | 4.46 µM (inactive) | 5.16 µM (inactive) | 2.6 µM (inactive) | 6.58 µM (inactive) | 5.36 µM (inactive) | 2.81 µM (inactive) | 3.4 µM (inactive) | 4.19 µM (inactive) | 4.55 µM (inactive) | 2.21 µM (inactive) | 5.02 µM (inactive) | 9.04 µM (inactive) | 2.03 µM (inactive) | 1.79 µM (inactive) | 3.57 µM (inactive) | 2.17 µM (inactive) | 2.31 µM (inactive) | 1.88 µM (inactive)
COc1cc(/C=N/c2ccc(Oc3ccc(Cl)cc3)c(Cl)c2)cc(OC)c1OC | 26.9 µM (inactive) | 20.2 µM (inactive) | 19.1 µM (inactive) | 18.2 µM (inactive) | 24.9 µM (inactive) | 22.9 µM (inactive) | 34.7 µM (inactive) | 29.1 µM (inactive) | 16.4 µM (inactive) | 12.3 µM (inactive) | 12.4 µM (inactive) | 22.6 µM (inactive) | 32.9 µM (inactive) | 18.2 µM (inactive) | 20.7 µM (inactive) | 17.2 µM (inactive) | 16.2 µM (inactive) | 15.5 µM (inactive) | 26.6 µM (inactive) | 28.2 µM (inactive)
CC(C)(C)C1CCC2c3c([nH]c4ccccc34)C3C(=O)N(c4ccc(C(=O)O)cc4)C(=O)C3C2C1 (stereo not given) | 25 µM (inactive) | 17.7 µM (inactive) | 11.2 µM (inactive) | 13.4 µM (inactive) | 0.1 µM (active) | 16.7 µM (inactive) | 21.9 µM (inactive) | 11.7 µM (inactive) | 17.2 µM (inactive) | 18.9 µM (inactive) | 14.2 µM (inactive) | 11.9 µM (inactive) | 17.5 µM (inactive) | 10.1 µM (inactive) | 13.9 µM (inactive) | 19 µM (inactive) | 14.5 µM (inactive) | 14.9 µM (inactive) | 20.9 µM (inactive) | 2.96 µM (inactive)
CN(C)c1cccc(NC2=NCCO2)c1 | 30.3 µM (inactive) | 23.6 µM (inactive) | 12.2 µM (inactive) | 83.8 µM (inactive) | 46.7 µM (inactive) | > 100 µM (inactive) | > 100 µM (inactive) | 90.4 µM (inactive) | 46.6 µM (inactive) | 80.2 µM (inactive) | 92 µM (inactive) | 17.5 µM (inactive) | > 100 µM (inactive) | > 100 µM (inactive) | 48.9 µM (inactive) | 20.6 µM (inactive) | 31.9 µM (inactive) | 33.9 µM (inactive) | 47.2 µM (inactive) | 19.8 µM (inactive)
O=S(=O)(O)c1ccc(/N=N/c2c(O)ccc3ccccc23)cc1 | > 100 µM (inactive) | > 100 µM (inactive) | > 69.8 µM (inactive) | > 100 µM (inactive) | > 100 µM (inactive) | > 100 µM (inactive) | > 100 µM (inactive) | > 100 µM (inactive) | > 100 µM (inactive) | > 100 µM (inactive) | > 100 µM (inactive) | > 100 µM (inactive) | > 100 µM (inactive) | > 100 µM (inactive) | > 100 µM (inactive) | > 100 µM (inactive) | > 100 µM (inactive) | 4.58 µM (inactive) | 98.2 µM (inactive) | > 100 µM (inactive)
COC(=O)c1ccc2cc(O)c(O)cc2c1 | 13.2 µM (inactive) | 26.5 µM (inactive) | 32.5 µM (inactive) | 29.6 µM (inactive) | 15.5 µM (inactive) | 78.2 µM (inactive) | > 88.9 µM (inactive) | 32.7 µM (inactive) | 40 µM (inactive) | 16.1 µM (inactive) | 16.6 µM (inactive) | 45 µM (inactive) | 27.9 µM (inactive) | 38.3 µM (inactive) | 29.8 µM (inactive) | 37.9 µM (inactive) | 36.1 µM (inactive) | 35.8 µM (inactive) | 38.9 µM (inactive) | 34.7 µM (inactive)

From ChEMBL document CHEMBL1201862, “PubChem BioAssay data set” (2004)
